Test results reported in ChEMBL document CHEMBL5331085 (Eur J Med Chem, 2023).
The source made the active and inactive calls. No cut-off for these calls is given here.

Tests used:
[1] = Hemolytic activity in sheep erythrocytes incubated for 1 hr by absorbance based analysis; assay type: toxicity, cell-based, Ovis aries, Erythrocyte; conditions: sheep erythrocytes
[2] = tested on: Staphylococcus aureus; experiment: Antimicrobial activity against methicillin-resistant Staphylococcus aureus incubated for 16 to 20 hrs by broth microdilution method; assay type: functional; conditions: time 16-20 hrs
[3] = Cytotoxicity against HUVEC cells assessed as inhibition of cell growth incubated for 72 hrs by CCK-8 assay; assay type: toxicity, cell-based; conditions: human
[4] = tested on: Staphylococcus aureus; experiment: Antimicrobial activity against methicillin-resistant Staphylococcus aureus incubated for 16 to 20 hrs by CLSI based broth dilution method; assay type: functional; conditions: time 16-20 hrs
[5] = tested on: Staphylococcus aureus; experiment: Antimicrobial activity against methicillin-resistant Staphylococcus aureus infected in Kunming female mouse assessed as reduction in neutrophil levels in skin at 5 to 10 mg/kg/day administered at labeled position and measured after 24 hrs by H and E staining based analysis; assay type: functional, organism-based; conditions: dose 5-10 mg/kg/day
[6] = Cytotoxicity against human BGC cells assessed as inhibition of cell growth incubated for 72 hrs by CCK-8 assay; assay type: toxicity, cell-based
[7] = tested on: Stenotrophomonas maltophilia; experiment: Antimicrobial activity against Stenotrophomonas maltophilia ATCC 17808 incubated for 16 to 20 hrs by CLSI based broth dilution method; assay type: functional; conditions: Stenotrophomonas maltophilia, ATCC 17808; time 16-20 hrs; read-out: MIC
[8] = tested on: Staphylococcus aureus; experiment: Induction of ROS accumulation in Staphylococcus aureus ATCC 29213 at 1 ug/ml incubated for 30 mins in presence of N-acetyl-L-cysteine by DCF-DA staining based fluorescence analysis; assay type: functional, organism-based; conditions: dose 1.0 µg/ml
[9] = tested on: Staphylococcus aureus; experiment: Antimicrobial activity against methicillin-resistant Staphylococcus aureus infected in Kunming female mouse assessed as reduction in bacterial load in skin at 10 mg/kg/day administered at labeled position and measured after 24 hrs relative to control; assay type: functional; design: scale not given: the % may be the effect or the level left
[10] = tested on: Cell membrane; experiment: Induction of membrane damage in Staphylococcus aureus ATCC 29213 assessed as change in membrane shape at 8 ug/ml incubated for 6 hrs by scanning electron microscopic analysis; conditions: dose 8.0 µg/ml
[11] = tested on: Staphylococcus aureus; experiment: Bactericidal activity against Staphylococcus aureus ATCC 29213 assessed as remaining bacterial concentration at 8 ug/ml measured after 8 hrs; assay type: functional; conditions: dose 8 µg/ml
[12] = tested on: Cell membrane; experiment: Induction of membrane disruption in Staphylococcus aureus ATCC 29213 assessed as increase in red fluorescence at 8 ug/ml incubated for 30 mins by DAPI/PI staining based confocal microscopic analysis; assay type: subcellular; conditions: dose 8.0 µg/ml
[13] = tested on: Staphylococcus aureus; experiment: Antimicrobial activity against Staphylococcus aureus ATCC 29213 incubated for 16 to 20 hrs by CLSI based broth dilution method; assay type: functional; conditions: Staphylococcus aureus, ATCC 29213; time 16-20 hrs; read-out: MIC
[14] = tested on: Staphylococcus aureus; experiment: Induction of ROS accumulation in Staphylococcus aureus ATCC 29213 at 0.5 ug/ml incubated for 30 mins by DCF-DA staining based fluorescence analysis; assay type: functional, organism-based; conditions: dose 0.5 µg/ml
[15] = tested on: Staphylococcus aureus; experiment: Induction of ROS accumulation in Staphylococcus aureus ATCC 29213 at 1 ug/ml incubated for 30 mins by DCF-DA staining based fluorescence analysis; assay type: functional, organism-based; conditions: dose 1.0 µg/ml
[16] = tested on: Staphylococcus aureus; experiment: Antimicrobial activity against methicillin-resistant Staphylococcus aureus infected in Kunming female mouse assessed as reduction in bacterial load in skin at 5 mg/kg/day administered at labeled position and measured after 24 hrs relative to control; assay type: functional; design: scale not given: the % may be the effect or the level left
[17] = tested on: Staphylococcus aureus; experiment: Antibacterial activity against Staphylococcus aureus ATCC 29213 assessed as fold increase in MIC incubated for 18 hrs in presence of phosphatidylethanolamine at 64 ug/ml incubated for 18 hrs by checkerboard dilution assay relative to control; assay type: functional
[18] = tested on: Cell membrane; experiment: Induction of membrane depolarization in Staphylococcus aureus ATCC 29213 assessed as increase in fluorescence intensity treated for 6 mins prior to compound addition and further measured for 20 mins by DiSC3-5 dye based fluorescence analysis; assay type: subcellular; conditions: dose 16-64 µg/ml
[19] = tested on: Cell membrane; experiment: Induction of membrane damage in Staphylococcus aureus ATCC 29213 assessed as shrunken bacterial cell surface at 8 ug/ml incubated for 6 hrs by scanning electron microscopic analysis; assay type: subcellular; conditions: dose 8.0 µg/ml
[20] = tested on: Escherichia coli; experiment: Antimicrobial activity against Escherichia coli ATCC 25922 incubated for 16 to 20 hrs by CLSI based broth dilution method; assay type: functional; conditions: Escherichia coli, ATCC 25922; time 16-20 hrs; read-out: MIC
[21] = tested on: Cell membrane; experiment: Induction of membrane damage in Staphylococcus aureus ATCC 29213 assessed as membrane collapse with flowing contents at 8 ug/ml incubated for 6 hrs by scanning electron microscopic analysis; assay type: subcellular; conditions: dose 8.0 µg/ml
[22] = tested on: Enterococcus faecium; experiment: Antimicrobial activity against Enterococcus faecium ATCC 29212 incubated for 16 to 20 hrs by CLSI based broth dilution method; assay type: functional; conditions: Enterococcus faecium, ATCC 29212, time 16-20 hrs; read-out: MIC
[23] = tested on: Staphylococcus aureus; experiment: Bactericidal activity against Staphylococcus aureus ATCC 29213 incubated for 16 to 20 hrs in presence of 50% plasma by broth dilution method; assay type: functional, organism-based; conditions: time 16-20 hrs
[24] = Induction of drug resistance in Staphylococcus aureus ATCC 29213 assessed as test compound MIC at sub-MIC measured after 20 days (reference value: 1 ug/ml); assay type: functional; conditions: ATCC 29213, 480 h, time 20 day
[25] = Cytotoxicity against human WPMY-1 cells assessed as inhibition of cell growth incubated for 72 hrs by CCK-8 assay; assay type: toxicity, cell-based
[26] = tested on: Staphylococcus aureus; experiment: Antibacterial activity against Staphylococcus aureus ATCC 29213 assessed as inhibition of bacterial growth at 1 ug/ml incubated for 16 to 18 hrs in presence of genomic DNA at 0.125 to 4 ug/ml by microplate reader analysis; assay type: functional, organism-based; conditions: dose 1.0 µg/ml, time 16-18 hrs
[27] = tested on: Cell membrane; experiment: Induction of membrane disruption in Staphylococcus aureus ATCC 29213 assessed as nucleic acid leakage at 16 ug/ml incubated for 2 hrs by ultra-fine fluorescence spectrophotometry analysis; conditions: dose 16.0 µg/ml
[28] = tested on: Staphylococcus aureus; experiment: Bactericidal activity against Staphylococcus aureus ATCC 29213 assessed as reduction in bacterial growth at 8 ug/ml measured upto 24 hrs; assay type: functional, organism-based; conditions: dose 8.0 µg/ml
[29] = tested on: Staphylococcus aureus; experiment: Antimicrobial activity against methicillin-resistant Staphylococcus aureus infected in Kunming female mouse assessed as reduction in skin inflammation at 5 to 10 mg/kg/day administered at labeled position and measured after 24 hrs by H and E staining based analysis; assay type: functional, organism-based; conditions: dose 5-10 mg/kg/day
[30] = tested on: Staphylococcus aureus; experiment: Antibacterial activity against Staphylococcus aureus ATCC 29213 assessed as fold increase in MIC incubated for 18 hrs in presence of phosphatidylglycerol incubated for 18 hrs by checkerboard dilution assay relative to control; assay type: functional
[31] = tested on: Cell membrane; experiment: Induction of membrane damage in Staphylococcus aureus ATCC 29213 assessed as sticky appearance of bacterial cells at 8 ug/ml incubated for 6 hrs by scanning electron microscopic analysis; assay type: subcellular; conditions: dose 8.0 µg/ml
[32] = tested on: Staphylococcus aureus; experiment: Antibacterial activity against Staphylococcus aureus ATCC 29213 assessed as increase in MIC incubated for 18 hrs in presence of cardiolipin incubated for 18 hrs by checkerboard dilution assay; assay type: functional, organism-based

Compound: CCCCCCCC[N+](C)(C)CCCCCOc1ccc(OCCCCC[N+](C)(C)CCCCCCCC)cc1.[Br-].[Br-]
- HC50 at 1 h [1]: 1210 µg/mL
- MIC [2]: 0.25 µg/mL

Compound: CCCCCC[N+](C)(C)CCCOc1cccc(-c2cccc(OCCC[N+](C)(C)CCCCCC)c2)c1.[Br-].[Br-]
- IC50 at 72 h [3]: 24.6 µg/mL
- MIC90 [4]: 1 µg/mL
- HC50 at 1 h [1]: 905 µg/mL
- Activity [5]: Active
- IC50 at 72 h [6]: 18.8 µg/mL
- MIC [7]: 16 µg/mL
- Activity [8]: inactive
- Activity [9]: 99.93%
- Activity [10]: Active
- Activity [11]: <1 10^2CFU/ml
- Activity [12]: Active
- MIC [13]: 1 µg/mL
- Activity [14]: Active
- Activity [15]: inactive
- Activity [16]: 99.67%
- fold change (FC) [17]: 2
- Activity [18]: Dose-Dependent Effect
- Activity [19]: Active
- MIC [20]: 16 µg/mL
- Activity [21]: Active
- MIC [22]: 8 µg/mL
- Activity [23]: Active
- MIC [24]: 1 µg/mL
- IC50 at 72 h [25]: 23.3 µg/mL
- Activity [26]: Active
- Activity [27]: Active
- Activity [28]: Active
- Activity [29]: Active
- fold change (FC) [30]: 16
- Activity [31]: Active
- Activity [32]: Active
